From patent publication US7361643B2, “Methods for inhibiting angiogenesis” (University of Puerto Rico, priority 2000, dated 2008) come the findings set out here.

This experiment concerns bovine adrenal medullary microvascular endothelial cells. As to the kind of experiment: Cell cycle and apoptosis by flow cytometry (propidium iodide). It is filed as cell-based. The procedure:
Regarding flow cytometry, assessment of the cell cycle was determined by propidium iodide staining of fixed cell nuclei followed by flow cytometry in a FacSort (Beckton Dickinson) according to the method of Krishan (1975) as modified by Vindelov (1977), as discussed in KRISHAN, “Rapid Flow Cytofluorometric Analysis of Mammalian Cell Cycle by Propidium Iodide Staining”, J. Cell Biol., 66:188-193 (1975); and VINDELOV, “Flow Cytometric Analysis of Nuclear DNA in Cells from Solid Tumors and Cell Suspensions”, Virchows Arch (B), 24:227-231(1977), the disclosures of which are herein incorporated by reference in their entireties. Briefly, cells were trypsinized, and pelleted by centrifugation at 900 rpm in a bench top centrifuge (Sorvall T6000B). After washing twice with PBS the cell pellet was resuspended in propidium iodide-buffer (PI-buffer; 10 mM Tris-HCl, pH 8.0 containing 10 mM NaCl, 0.7 μM PI, 700 units/liter RNase, and 0.1% (v/v) NP-40), kept in ice for 30 minutes and then fixed with 2% (v/v) paraformaldehyde. After FacSort calibration, 3000 events were counted per sample. Acquisition and analysis of data were carried out by using Cell Quest flow cytometry software (Macintosh-based). Gates: M1=G0/G1, M2=S, M3=G2+M, M4=apoptosis.
Proliferation and Differentiation of Capillary Endothelial Cells: 2.0×10^4 cells were seeded per well in 24-well clusters in 1 ml complete EMEM containing 10% (v/v) serum and allowed to grow for 72 hours. Media were removed and the cells were washed twice with phosphate-buffer saline, pH 7.4 (PBS). Cells were synchronized by incubating for 48 hours in 2 mM hydroxyurea in serum-free EMEM with glutamine (2 mM) and one-third of penicillin-streptomycin used in a regular culture condition, followed by incubating 24 hours in serum-free EMEM, as discussed in CAO et al., “Modified Method of Mammalian Cell Synchronization Improves Yield and Degree of Synchronization”, Exp. Cell Res., 193:405-410 (1991), the disclosure of which is herein incorporated by reference in its entirety. Cells were routinely monitored by light microscopy. For proliferation assay, cells were trypsinized and counted in a hemacytometer. Viability of cells was determined by trypan blue (0.4% (v/v)) exclusion. Statistical analysis was carried out by StatView II software (Macintosh). Quantitation of cellular differentiation was carried out by observing under a Nikon AlphaShot inverted microscope, and counting the number of capillary lumen-like structures in five randomly selected fields per sample. The results were expressed as percent of its corresponding control after normalization of cell numbers. Analysis of Cell Cycle by Flow Cytometry: Assessment of the cell cycle was determined by propidium iodide staining of fixed cell nuclei followed by flow cytometry in a FacSort (Beckton Dickinson) according to the method of Krishan (1975) as modified by Vindelov (1977), as discussed in KRISHAN, “Rapid Flow Cytometric Analysis of Mammalian Cell Cycle by Propidium Iodide Staining”, J. Cell Biol. 66:188-195 (1975); and VINDELOV, “Flow Cytometric Analysis of Nuclear DNA in Cells from Solid Tumors and Cell Suspensions”, Virchows Arch (B), 24:227-231 (1977), the disclosures of which are herein incorporated by reference in their entireties. Briefly, cells were trypsinized, and pelleted by centrifugation at 900 rpm in a bench top centrifuge (Sorvall T6000B). After washing twice with PBS the cell pellet was resuspended in propidium iodide-buffer (PI-buffer; 10 mM Tris-HCl, pH 8.0 containing 10 mM NaCl, 0.7 μM PI, 700 units/liter RNase, and 0.1% (v/v) NP-40), kept in ice for 30 minutes and then fixed with 2% (v/v) paraformaldehyde. After FacSort calibration, 3000 events were counted per sample. Acquisition and analysis of data were carried out by using Cell Quest flow cytometry software (Macintosh-based). Gates: M1 G0/G1, M2=S, M3=G2+M, M4=apoptosis.
For orientation: In flow cytometry, cells or beads pass a laser one at a time.

Regarding tunicamycin, the “completion of the cell cycle” value (1 μg/ml tunicamycin) is “never completed the cell cycle”. The “cell population entered into apoptosis” value (1 μg/ml tunicamycin, 32 hours exposure, synchronized cells, EMEM 2% (v/v) FBS) is given as ~70%. Under “in the presence of tunicamycin”, the “apoptosis by flow cytometric analysis (in words)” value was “underwent apoptosis”.
